Laboratory results reported in PMC4287973, “Tumor cell-specific inhibition of MYC function using small molecule inhibitors of the HUWE1 ubiquitin ligase” (EMBO Molecular Medicine, 2014).

Legend:
[1] = biological target: T1, ITCH (Homo sapiens, UniProt Q96J02); test: in vitro HECT-domain auto-ubiquitination assay, ITCH; assay type: biochemical
T1 construct: HECT-domains of multiple ligases auto-ubiquitinate in in vitro assays containing both UBA1 and UbcH5b

[2] = biological target: T2, WWP1 (Homo sapiens, UniProt Q9H0M0); test: in vitro HECT-domain auto-ubiquitination assay, WWP1; assay type: biochemical
T2 construct: HECT-domains of multiple ligases auto-ubiquitinate in in vitro assays containing both UBA1 and UbcH5b
T2 sequence (Q9H0M0 588-922 limits assumed, species assumed): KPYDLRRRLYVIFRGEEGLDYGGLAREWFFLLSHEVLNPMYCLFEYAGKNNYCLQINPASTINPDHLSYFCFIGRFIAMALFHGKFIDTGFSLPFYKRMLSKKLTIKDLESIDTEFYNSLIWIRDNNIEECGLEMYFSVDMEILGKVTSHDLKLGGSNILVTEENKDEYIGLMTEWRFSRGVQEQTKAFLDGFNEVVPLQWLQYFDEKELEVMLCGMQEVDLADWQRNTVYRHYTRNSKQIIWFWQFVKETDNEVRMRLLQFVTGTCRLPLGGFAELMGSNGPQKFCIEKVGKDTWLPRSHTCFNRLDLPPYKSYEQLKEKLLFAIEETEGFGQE

[3] = biological target: T3, HERC1 (Homo sapiens, UniProt Q15751); test: in vitro HECT-domain auto-ubiquitination assay, HERC1; assay type: biochemical
T3 construct: HECT-domains of multiple ligases auto-ubiquitinate in in vitro assays containing both UBA1 and UbcH5b
T3 sequence (Q15751 4501-4848 limits assumed): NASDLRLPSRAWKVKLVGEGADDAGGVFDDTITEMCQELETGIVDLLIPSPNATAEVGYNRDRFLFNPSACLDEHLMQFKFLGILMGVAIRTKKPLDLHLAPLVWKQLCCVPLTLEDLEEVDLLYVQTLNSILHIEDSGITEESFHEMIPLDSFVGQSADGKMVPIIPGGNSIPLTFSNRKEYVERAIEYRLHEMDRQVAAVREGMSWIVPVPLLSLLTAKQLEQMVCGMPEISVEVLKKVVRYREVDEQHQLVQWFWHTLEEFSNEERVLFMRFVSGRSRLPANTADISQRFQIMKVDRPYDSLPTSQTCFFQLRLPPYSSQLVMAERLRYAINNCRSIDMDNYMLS

[4] = biological target: T4, NEDD4L (Homo sapiens, UniProt Q96PU5); test: in vitro HECT-domain auto-ubiquitination assay, NEDD4L; assay type: biochemical
T4 construct: HECT-domains of multiple ligases auto-ubiquitinate in in vitro assays containing both UBA1 and UbcH5b
T4 sequence (Q96PU5 640-974 limits assumed): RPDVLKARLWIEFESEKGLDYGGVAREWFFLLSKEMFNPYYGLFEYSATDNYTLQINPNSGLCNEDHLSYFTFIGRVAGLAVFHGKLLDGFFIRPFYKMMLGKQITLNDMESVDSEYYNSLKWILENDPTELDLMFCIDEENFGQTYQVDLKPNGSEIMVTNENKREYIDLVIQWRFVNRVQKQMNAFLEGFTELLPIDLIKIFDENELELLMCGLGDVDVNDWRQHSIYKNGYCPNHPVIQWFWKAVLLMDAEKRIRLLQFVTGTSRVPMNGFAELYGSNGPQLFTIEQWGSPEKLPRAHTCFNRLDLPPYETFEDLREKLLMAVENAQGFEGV

[5] = biological target: T5, HECW2 (Homo sapiens, UniProt Q9P2P5); test: in vitro HECT-domain auto-ubiquitination assay, HECW2; assay type: biochemical
T5 construct: HECT-domains of multiple ligases auto-ubiquitinate in in vitro assays containing both UBA1 and UbcH5b
T5 sequence (Q9P2P5 1237-1572 limits assumed, species assumed): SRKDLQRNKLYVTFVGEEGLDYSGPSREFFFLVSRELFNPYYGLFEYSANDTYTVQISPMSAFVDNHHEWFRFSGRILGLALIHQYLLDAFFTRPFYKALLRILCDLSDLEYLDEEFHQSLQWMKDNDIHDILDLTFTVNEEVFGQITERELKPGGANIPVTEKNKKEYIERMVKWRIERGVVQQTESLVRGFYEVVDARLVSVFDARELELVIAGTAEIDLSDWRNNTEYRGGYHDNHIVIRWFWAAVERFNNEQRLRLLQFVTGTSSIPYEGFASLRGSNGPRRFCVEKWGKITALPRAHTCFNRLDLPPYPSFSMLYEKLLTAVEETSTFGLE

[6] = biological target: T6, SMURF2 (Homo sapiens, UniProt Q9HAU4); test: in vitro HECT-domain auto-ubiquitination assay, SMURF2; assay type: biochemical
T6 construct: HECT-domains of multiple ligases auto-ubiquitinate in in vitro assays containing both UBA1 and UbcH5b
T6 sequence (Q9HAU4 414-748 limits assumed, species assumed): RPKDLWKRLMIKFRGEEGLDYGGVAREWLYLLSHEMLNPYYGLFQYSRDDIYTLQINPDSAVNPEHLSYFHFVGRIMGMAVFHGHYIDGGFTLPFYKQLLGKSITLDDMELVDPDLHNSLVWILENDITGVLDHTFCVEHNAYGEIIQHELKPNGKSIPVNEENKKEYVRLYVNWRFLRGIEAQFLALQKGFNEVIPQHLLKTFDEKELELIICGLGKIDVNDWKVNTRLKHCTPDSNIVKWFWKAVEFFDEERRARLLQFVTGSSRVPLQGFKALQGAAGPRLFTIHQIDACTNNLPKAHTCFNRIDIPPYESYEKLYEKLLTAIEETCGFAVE

[7] = biological target: T7, SMURF1 (Homo sapiens, UniProt Q9HCE7); test: in vitro HECT-domain auto-ubiquitination assay, SMURF1; assay type: biochemical
T7 construct: HECT-domains of multiple ligases auto-ubiquitinate in in vitro assays containing both UBA1 and UbcH5b
T7 sequence (Q9HCE7 420-757 limits assumed, species assumed): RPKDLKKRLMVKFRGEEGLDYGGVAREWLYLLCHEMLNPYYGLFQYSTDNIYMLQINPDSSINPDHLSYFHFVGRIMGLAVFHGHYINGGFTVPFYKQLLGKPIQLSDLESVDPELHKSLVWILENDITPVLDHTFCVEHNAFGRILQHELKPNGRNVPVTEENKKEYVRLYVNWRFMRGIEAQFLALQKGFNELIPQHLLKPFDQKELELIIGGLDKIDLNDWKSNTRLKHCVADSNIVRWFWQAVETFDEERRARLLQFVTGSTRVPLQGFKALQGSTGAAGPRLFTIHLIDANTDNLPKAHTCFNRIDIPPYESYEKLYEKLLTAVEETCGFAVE

[8] = system: crypt cultures of normal intestinal epithelial cells; test: Survival and viability of intestinal crypt (organoid) cultures; conditions: for fraction of individual crypts that died: long-term incubation of primary crypt cultures
Experimental: Murine intestinal crypt cultures were established from wild-type mice of a mixed background (50% C57Bl6J, 50% S129) as previously described (Sato et al, [2009]). Briefly, intestines were isolated and flushed with PBS. Villi were removed by scraping and remaining tissue cut and washed with PBS. Crypt extraction was carried out in PBS + 2 mM EDTA for 30 min at 4 °C. Isolated crypts were washed with PBS and plated in growth factor reduced Matrigel (BD Biosciences). Crypts were grown in Advanced DMEM (Invitrogen) supplemented with N2 (Invitrogen), B27 (Invitrogen), EGF (Peprotech), Noggin (Peprotech), and R-spondin (Peprotech). Media were replaced every 2 days and crypts passaged weekly. […] Organoid survival was scored at this point based on their microscopic appearance. Cell viability was also determined using a CellTiter-Blue Cell Viability Assay (Promega) according to the manufacturer's instructions.
end of the experiment, the number of life crypts was counted by visual inspection.

[9] = biological target: T8, HECT-domain of HUWE1 (Homo sapiens, UniProt Q7Z6Z7); test: HUWE1 auto-ubiquitination assay (DELFIA format); assay type: biochemical; conditions: UBA1, UbcH5b, read-out: IC50 HUWE1 (in vitro auto-ubiquitination)
T8 construct: 30 ng biotinylated His-HUWE1 (C-terminal ∼350 amino acids = HECT-domain); His; biotin (biotinylated)
T8 sequence (Q7Z6Z7 4038-4374 limits assumed): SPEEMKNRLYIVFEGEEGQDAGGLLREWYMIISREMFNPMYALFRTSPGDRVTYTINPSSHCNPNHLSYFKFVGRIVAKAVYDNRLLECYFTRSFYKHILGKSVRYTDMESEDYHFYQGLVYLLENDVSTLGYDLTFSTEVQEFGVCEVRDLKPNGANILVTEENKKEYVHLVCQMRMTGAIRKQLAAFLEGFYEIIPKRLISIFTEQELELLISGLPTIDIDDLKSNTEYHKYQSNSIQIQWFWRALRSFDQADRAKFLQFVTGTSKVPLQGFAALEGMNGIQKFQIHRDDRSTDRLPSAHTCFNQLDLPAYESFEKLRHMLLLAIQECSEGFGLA
Experimental: To identify potential inhibitors of HUWE1, we configured an in vitro assay of HUWE1 activity for high-throughput screening of small molecules, exploiting the fact that the HECT-domain of HUWE1 auto-ubiquitinates (Pandya et al, [2010]). Briefly, the HECT-domain of HUWE1 was biotin-tagged, attached to streptavidin-coated 96-well plates, and incubated with UBA1, UbcH5b, a ubiquitin-conjugating enzyme that supports HUWE1 activity in vitro (Adhikary et al, [2005]), ATP, and MYC-tagged ubiquitin. Auto-ubiquitination was detected using a europium-labeled MYC antibody and appropriate detection reagents (Fig3A). […] After hit confirmation in repeat experiments, we identified inhibitors of UBA1 or UbcH5b by a thioester assay that measures the covalent binding of UbcH5b to ubiquitin in the presence of UBA1: Compounds active in this assay were eliminated. Furthermore, dose responses were determined in both HUWE1 and NEDD4 auto-ubiquitination assays, and compounds inhibiting NEDD4 auto-ubiquitination were eliminated (Fig3B and unpublished observations). […]
A DELFIA format assay was used to measure the covalent association of ubiquitin with HUWE1 (auto-ubiquitination). […] Europium fluorescence was measured with 50 μl DELFIA enhancement solution (Perkin Elmer) in a Wallac Victor fluorescence plate reader (Perkin Elmer).

T1 sequence (Q96J02 569-903 limits assumed, species assumed): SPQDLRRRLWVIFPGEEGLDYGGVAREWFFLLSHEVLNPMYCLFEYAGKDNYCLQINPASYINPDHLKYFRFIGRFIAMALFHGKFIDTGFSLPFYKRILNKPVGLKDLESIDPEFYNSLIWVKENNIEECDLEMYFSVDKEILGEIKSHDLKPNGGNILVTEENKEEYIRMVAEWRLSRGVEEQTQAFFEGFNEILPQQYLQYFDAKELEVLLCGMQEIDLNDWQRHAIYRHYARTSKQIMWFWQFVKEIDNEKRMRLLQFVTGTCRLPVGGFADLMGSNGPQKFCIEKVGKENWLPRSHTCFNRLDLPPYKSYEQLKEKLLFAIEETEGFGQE

`Cc1c(C(=O)Nc2ccc(CN)cc2)ncnc1N1CCC(C#N)(c2ccccc2)CC1` [BI8622] gave an IC50 [1] of over 50 µM, an IC50 [2] of over 50 µM and an IC50 [3] of over 50 µM. The IC50 [4] was over 50 µM, the IC50 [5] was over 50 µM and the IC50 [6] was over 50 µM. The IC50 [7] was over 50 µM, the “Ki67 staining of intestinal crypts” value ([8]; 10 µM, 24 hr) was “Ki67-positive” and the “MTT assay corrected for number of live crypts” value ([8]; 10 µM, 24 hr) was “no reduction”. The “number of live crypts, % of all crypts” value ([8]; 10 µM, 24 hr, visual inspection) was 68%, the “fraction of individual crypts that died” value [8] was “around 30%” and the IC50 [9] was 3.1 µM.

`NCc1cccc(CNc2ncnc3c(N4CCN(Cc5ccccc5)CC4)ncnc23)c1` [BI8626] gave an IC50 [1] of over 50 µM, an IC50 [2] of over 50 µM and an IC50 [3] of over 50 µM. It also gave an IC50 [4] of over 50 µM, an IC50 [5] of over 50 µM and an IC50 [6] of over 50 µM. The IC50 [7] was over 50 µM, the “fraction of individual crypts that died” value [8] was 60-80% and the IC50 [9] was 0.9 µM.
